Laboratory results from US8420777B2, “Compounds that inhibit Hsp90 protein-protein interactions with IAP proteins” (University of Massachusetts, priority 2004, dated 2013).

Legend:
HeLa cells [1] = assay: Apoptosis by hypodiploid DNA content, propidium iodide flow cytometry; format: cell-based, Human; settings: 24 hours
Experimental: For determination of apoptosis by hypodiploid DNA content, various tumor cell lines were incubated with increasing concentrations of the cell permeable control scrambled (SEQ ID NO:25) or Survivin peptide (SEQ ID NO:19), harvested after 24 hours (floaters plus attached cells) fixed in 70% ethanol, and stained with 10 μg/ml propidium iodide plus 100 μg/ml RNAse A and 0.05% Triton™ X-100 in PBS, pH 7.4. Cultures were analyzed for DNA content by flow cytometry. For colorimetric quantification of cell viability, an MTT assay was used. Various tumor cell lines were incubated with increasing concentrations of the cell permeable retro-inverso control scrambled P4 or the Survivin-specific P3 peptide, incubated for 24 hours at 37° C. washed twice with Bruffs Media, and 4,5-dimethylthiazol-2-yl)-2,5-diphenyltetrazolium bromide (MTT) (Sigma, St. Louis, Mo.) was added at 5 mg/ml. Decrease in cell viability was analyzed for loss of colorimetric absorption at OD405.
HeLa cells were incubated with the indicated increasing concentrations of the cell permeable Control (scrambled) or Survivin peptide, harvested after 24 hours at 37° C., and analyzed by hypodiploid DNA content by propidium iodide staining and flow cytometry.
HeLa cells were incubated with chemotherapeutic drugs Taxol™ (10 μM) or adriamycin (300 nM), or cell permeable control peptide or the Survivin peptide, harvested after 24 hours, and analyzed for induction of apoptosis by hypodiploid DNA content by flow cytometry.

[2] = test system: breast carcinoma MCF-7 cells; assay: Multiparametric flow cytometry of caspase activity and membrane integrity; format: cell-based; settings: MCF-7 (wild type p53), 24 hours
Experimental: For multiparametric analysis of caspase-dependent cell death and loss of plasma membrane integrity, HeLa, MCF-7, or genetically engineered HCT116 cells (obtained from ATCC) were loaded with increasing concentrations of cell permeable control scrambled peptide or the Survivin peptide, harvested after culturing for 24 hours at 37° C., and analyzed for cell viability (propidium iodide, red channel) and active caspase-3 activity (CaspaTag™ from Intergen, Purchase, N.Y., green channel) by flow cytometry.
Experiments were performed as in Example 13, except that breast carcinoma MCF-7 cells (wild type p53) were analyzed by multiparametric flow cytometry of induction of caspase activity and loss of cell membrane integrity after intracellular loading with cell permeable Control (SEQ ID NO:25) or Survivin (SEQ ID NO:19) cell permeable peptide.

[3] = test system: breast carcinoma MCF-7 cells; assay: Soft agar colony formation (anchorage-independent growth); format: cell-based; settings: 75 or 150 μm in growth media, relative to Control scrambled peptide
Experimental: For soft agar colony formation, 2×10^4 adapted breast carcinoma MCF-7 cells were suspended in 1.5 ml of DMEM supplemented with 10% FBS and 0.35% bactoagar (Becton Dickinson, Sparks, Md.) in 36 mm tissue culture plates containing 1.5 ml of 0.75% agarose in growth medium at the bottom layer. The plates were incubated at 37° C. in a 5% CO2 incubator for 2-5 weeks. The colonies were stained with 0.005% crystal violet (Sigma) and counted using a dissecting microscope under high power field.
The two upper plates shown in FIG. 19 had no visible cell colonies.

[4] = test system: DU145, PC3, HeLa tumor cell lines; assay: MTT colorimetric viability assay, tumor cell lines; format: cell-based; settings: increasing concentrations, 24 hours
Experimental: FIGS. 22A and 22B compares the effect of P31 (SEQ ID NO:19) or P33 (SEQ ID NO:25) on apoptosis of tumor cell lines (FIG. 22A) and normal cell lines (FIG. 22B). The following tumor cell lines DU145 (prostate cancer, circles), PC3 (prostate cancer, triangles), or HeLa (cervical carcinoma, squares) were treated with the indicated increasing concentrations of P31 peptide (solid symbols) or control P33 peptide (open symbols), harvested after 24 hours, and analyzed for cell viability using an MTT colorimetric assay. For normal cell types (right panel), HFF (human foreskin fibroblasts, squares), HGF (human fibroblasts, triangles) or WS-1 (human epithelial cells, circles) were treated with P31 (solid symbols) or control scrambled peptide P33, harvested after 24 hours and analyzed for overall cell viability by MTT colorimetric assay. All cell lines were from ATCC.

HeLa cells [5] = assay: Annexin V labeling and propidium iodide multiparametric flow cytometry; format: cell-based, Human; settings: increasing concentrations, eight hour incubation, 37° C.
Experimental: HeLa cell cultures were treated with the indicated increasing concentrations of P31 (Survivin) or P33 (Control; SEQ ID NO:25) peptides, harvested after an eight hour incubation at 37° C., and analyzed for multiparametric flow cytometry of Annexin V labeling (X-axis, a marker of apoptosis) and propidium iodide staining (Y-axis, a marker of cell death).

telomerase = assay: TRAP assay on Hsp90 immunoprecipitates; format: cell-based; settings: PC3 cells treated before immunoprecipitation
Experimental: Survivin peptide treated PC3 cells were also tested for telomerase activity, which requires Hsp90 (Holt et al., Genes Dev., 13:817-26 (1999)). Cells were treated as in above, immunoprecipitated with an antibody to Hsp90, and telomerase activity was determined by TRAP assay (Kim and Wu, Nucleic Acids Res., 25:2595-7 (1997)) of the immunoprecipitates. Telomerase activity is indicated by a ladder of telomere products.

HL-60 cells = assay: Cell killing by trypan blue exclusion; format: cell-based
Experimental: The expression and function of the survivin-Hsp90 pathway in acute myelogenous leukemia (AML) cell lines was analyzed. Survivin was abundantly expressed in four AML cell lines, U937, K-562, THP-1 and HL-60, by Western blotting (FIG. 29A).

[6] = test system: HL-60 and THP-1 AML cell lines; assay: MTT cell viability, short versus full length peptide; format: cell-based; settings: 4×10^5 cells
Experimental: FIGS. 29B-29D are graphs depicting killing of AML cells by Survivin peptides. FIG. 29B depicts survivin peptide activity in HL-60 cells, measured by Trypan blue exclusion. FIGS. 29C and 29D depict killing, as measured using MTT, of HL-60 (FIG. 29C) or THP-1 (FIG. 29D) cells by full length Survivin peptide (SEQ ID NO:19), Survivin peptide K79-G83 (SEQ ID NO:20), or scrambled peptide (SEQ ID NO:25 and SEQ ID NO:28).
The activity of a shorter Survivin peptide was also tested in an AML cell line. A shorter cell permeable Survivin peptide was synthesized by fusing the third α-helix of the Antennapedia carrier sequence to the amino-terminus of the Survivin peptide sequence K79-G83 (SEQ ID NO:20). […] The scrambled control peptide ([…]; SEQ ID NO:28) was ineffective (FIGS. 29C, D). For these experiments a higher number of cells was used (4×10^5) to produce a 50% killing efficiency by full length survivin peptide.

## RQIKIWFQNRRMKWKKKHSSGCAFL (Synthetically generated peptide) [P31]
HeLa cells [1]; increasing concentrations, 37° C.
  cell viability reflected by hypodiploid DNA content: massive loss of cell viability
HeLa cells [1]; peptides, comparison with chemotherapeutic drugs
  cell population with hypodiploid DNA content (apoptotic): results in the appearance of a large cell population with hypodiploid DNA content
[2]
  caspase-dependent apoptosis: induces apoptosis
[3]
  anchorage-independent cell growth and survival: completely inhibited
[4]
  cell death in cancer cell lines (MTT): effectively induced cell death in all three cancer cell lines
HeLa cells [5]
  induction of apoptosis (Annexin V / propidium iodide): induced apoptosis in a dose-dependent manner
telomerase
  telomerase activity: abrogated telomerase activity
HL-60 cells
  cell killing (trypan blue exclusion): dose-dependent and complete cell killing
[6]
  killing efficiency: 50%
